Peptide text beside a SMILES is read from it. * marks the point of attachment. code Z = not defined here; CH2F = FC*
How the values were obtained:
[1] = target: T1, human recombinant caspase-2 (Homo sapiens, UniProt P42575); assay: In vitro caspase-2 cleavage assay (Ac-VDVAD-AMC substrate); format: biochemical; design: key to Group (pattern of caspase-2 inhibition curve): group 1 referred to inhibitors that were relatively more active than VDVAD(SEQ ID NO:9)-based inhibitors against caspase-2 at lower doses, but with similar IC50 values; group 2 referred to VDVAD(SEQ ID NO:9)-based inhibitor with characteristic sigmoid dose-response; group 3 referred to pentapetidic-based inhibitors that were less active than VDVAD(SEQ ID NO:9)-based inhibitors against caspase-2 at lower doses and that exhibited higher IC50; conditions: for VDVAD-AMC cleavage by caspase-2: recombinant caspase-2, FIG. 16; for Group (pattern of caspase-2 inhibition curve) / IC50: Table 4; for IC50: 30 min pre-incubation, 2 h at 37° C.
T1 construct: purchased BIOMOL
T1 sequence (P42575 170-333 limits assumed): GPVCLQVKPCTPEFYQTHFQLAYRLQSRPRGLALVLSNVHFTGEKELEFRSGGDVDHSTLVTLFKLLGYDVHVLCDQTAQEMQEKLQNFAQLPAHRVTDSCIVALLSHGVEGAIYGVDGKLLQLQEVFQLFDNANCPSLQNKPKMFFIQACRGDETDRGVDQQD
T1 sequence (P42575 348-452 limits assumed): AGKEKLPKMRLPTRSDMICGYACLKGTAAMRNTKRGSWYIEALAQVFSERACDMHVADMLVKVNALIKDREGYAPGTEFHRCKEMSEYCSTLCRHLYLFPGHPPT
Method: Newly designed inhibitors (Ac-LDEAD(SEQ ID NO:7)-CHO, Ac-VDEAD(SEQ ID NO:1)-CHO . . . ) were compared to Ac-VDVAD(SEQ ID NO:9)-CHO in in vitro caspase-2 cleavage assay according to the following protocol (FIG. 8). Human recombinant caspases (25-50 U; QuantiZyme™ Assay System, BIOMOL, Plymouth, Pa., USA) were pre-incubated 30 min with inhibitors (0.005-2 μM) in final 100 μl final assay buffer (50 mM HEPES, pH 7.4, 100 mM NaCl, 0.1% CHAPS, 10 mM DTT, 1 mM EDTA, 10% glycerol) and then mixed with 200 μM of the fluorogenic caspase substrates (BIOMOL) Ac-VDVAD(SEQ ID NO:9)-AMC. An IC50 value corresponding to the concentration that could inhibit 50% of caspase activity was determined from the dose-response sigmoid curve. The cleavage of AMC-based substrates by human recombinant caspases 1-10 was measured after 2 h at 37° C. on a fluorescence microplate reader by monitoring emission at 510 nm upon excitation at 405 nm.

[2] = test system: global cerebral ischemia, hippocampus CA1 cell death; assay: Global cerebral ischemia by four-vessel occlusion (4VO) in young-adult rats; format: in vivo, rat; conditions: single i.c.v. 60 ng, 72 h post-ischemia
Method: Global cerebral ischemia was induced by four-vessel occlusion (4V0) according a Pulsinelli's derived method (Pulsinelli and Buchman, 1988) in young-adult rats (males Wistar aged of 10-12 weeks, 320 g+/−10 g; Janvier). The first day, head of anesthetised rats was positionned in stereotaxic ear bars and tilted down at approximatively 30° to the horizontal. After a midline incision at the level of cervical spine, both vertebral arteries were exposed under microscope and then coagulated by electocautery needle through the alar foramina at the level of first cervical vertebra. Both common carotides were then exposed 24 h later and clamped for 20-30 min (rats fell in the coma when electrocautherisation of both vertebral arteries have been well performed). Carotid arteries were then declamped to allow blood flow reperfusion. Vehicle and SEQ8 were administrated at the level of the left cerebral ventricule in the first fifth minutes of ischemia (carotides occlusion). Rats were let in their cage with waer et food ad libitum.
The selective loss of vulnerable cells and SEQ8's effects have been evaluated at 72 h. Rats were sacrificed and brain fixed by trans-cardiac perfusion with paraformaldehyde. Frontal brain slices (25 μm) were strained by Cresyl-Violet or co-stained by Hoechst 33342 and Fluorojade B to assess cell death in the hippocampus and in the cortex. […] Fluoro JadeB (green fluorescence) intake is possible only in cells which have permeable plasma membrane, thus more characteristic of dying cells. Hoechst 33342 (blue fluorescence) label nuclei all cells and allows to appreciate nuclear morphology changes during cell death. Cells are counted in three successive slices at such levels in the hippocampus (CA1) in the left brain hemisphere. […] Both Fluoro Jade B and Hoechst stained slices were observed under a Leica DMIRB inverted fluorescence microscope equipped with ×40 objective and LEICA IM1000/Qfluorobase software (BP 340-80 excitation filter combined with LP 425 emission filter for Hoechst; BP 480/40 excitation filter combined with BP 515-560 emission filter for Fluoro Jade B).

[3] = test system: neonatal ischemic brain injury; assay: Perinatal transient unilateral focal ischemia model in 7 day-old rat pups; format: in vivo; conditions: for reduction of infarct volume: 48 h
Method: Newborn Wistar rats (dam plus 9 pups per litter) were obtained from Janvier (Le Genest-St-Isle, France) when the pups were 3-4 days of age. The pups were housed with their dam under a 12:12 h light-dark cycle with food and water freely available. Animal experimentation was conducted according to the French and European Community guidelines for the care and use of experimental animals. Rat pups were anesthetized with an intraperitoneal injection of chloral hydrate (350 mg/kg). Ischemia was performed in 7 day-old rats (17-21 g), as previously described (Renolleau et al., 1998). Anesthetized rats were positioned on their back and a median incision was made in the neck to expose the left common carotid artery. Rats were then placed on the right side and an oblique skin incision was made between the ear and the eye. After excision of the temporal muscle, the cranial bone was removed from the frontal suture to a level below the zygomatic arch. […] After this procedure, a clip was placed to occlude the left common carotid artery. Rats were then placed in an incubator to avoid hypothermia. After 50 min, the clip was removed. Carotid blood flow restoration was verified with the aid of a microscope. Neck and cranial skin incisions were then closed. During the surgical procedure, body temperature was maintained at 37-38° C. Pups were transferred in an incubator (32° C.) until recovery then after to their dams.
Compound was administered intraperitoneally or intraveinously at 1 h after ischemia (corresponding to the reperfusion). Control animals received an equivalent volume of vehicle required to solubilize the pentapeptidic caspase inhibitor. Rats were killed 48 hours after reperfusion and brains were removed. The infarct lesion (pale zone) was visually scored by an observer blinded to the treatment of animals. Brains without a clear ischemic pale zone were observed under a magnifying glass.
Sections from anterior striatum to posterior hippocampus (corresponding to plates 9 to 27 in Paxinos' rat brain atlas) were selected, taken at equally spaced 0.5-mm intervals. The lesion areas were measured on cresyl violet-stained sections using an image analyzer, and the distances between respective coronal sections were used to calculate the infarct volume.

2-Quinolinylcarbonyl-L-Valinyl-L-Aspartyl (methyl ester)-L-Vanilyl-L-Alaninyl-L-Aspartyl (methyl ester) 2,6-difluorophenyl ester [SEQ8]
VDVAD-AMC cleavage by caspase-2 [1]: blocked
Cresyl-violet staining intensity [2]: partially restored
abnormal nuclei in CA1 [2]: less abnormal nuclei
cells incorporating Fluorojade B in CA1 [2]: 10-20%
animals with partially or very marked reduced infarct ([3]; 1 mg/kg i.v. (FIG. 18) 1 h post-ischemia): ~50%
animals with partially or very marked reduced infarct ([3]; 0.1 or 1 mg/kg i.p. 1 h post-ischemia): more than 50%
reduction of infarct volume ([3]; single dose 1 mg/kg i.v. (FIG. 18) 1 h post-ischemia): at least 30%
reduction of infarct volume ([3]; single dose 0.1 or 1 mg/kg i.p. 1 h post-ischemia): 44-53%

CC(=O)N[C@@H](CC(C)C)C(=O)N[C@@H](CC(=O)O)C(=O)N[C@@H](CCC(=O)O)C(=O)N[C@@H](CO)C(=O)N[C@H](C=O)CC(=O)O [Compound 1, Ac-LDESD-cho, reference compound] (Ac-LDESD-aldehyde)
Group (pattern of caspase-2 inhibition curve) [1]: 2/3
IC50 [1]: 300 ± 20 nM

CC(=O)N[C@@H](Cc1ccccc1)C(=O)N[C@@H](CC(=O)O)C(=O)N[C@@H](CCC(=O)O)C(=O)N[C@@H](CO)C(=O)N[C@H](C=O)CC(=O)O [Compound 3, Ac-FDESD(SEQ ID NO:6)-cho] (Ac-FDESD-aldehyde)
Group (pattern of caspase-2 inhibition curve) [1]: 3

CC(=O)N[C@H](C(=O)N[C@@H](CC(=O)O)C(=O)N[C@@H](CCC(=O)O)C(=O)N[C@@H](CO)C(=O)N[C@H](C=O)CC(=O)O)C(C)C [Compound 7, Ac-VDESD(SEQ ID NO:4)-cho] (Ac-VDESD-aldehyde)
Group (pattern of caspase-2 inhibition curve) [1]: 3

CC(=O)N[C@@H](CC(C)C)C(=O)N[C@@H](CC(=O)O)C(=O)N[C@@H](CCC(=O)O)C(=O)NCC(=O)N[C@H](C=O)CC(=O)O [Compound 26, Ac-LDEGD(SEQ ID NO:2)-cho] (Ac-LDEGD-aldehyde)
Group (pattern of caspase-2 inhibition curve) [1]: 3

CC(=O)N[C@@H](CC(C)C)C(=O)N[C@@H](CC(=O)O)C(=O)N[C@@H](CCC(=O)O)C(=O)N[C@@H](CCCCN)C(=O)N[C@H](C=O)CC(=O)O [Compound 27, Ac-LDEKD(SEQ ID NO:5)-cho] (Ac-LDEKD-aldehyde)
Group (pattern of caspase-2 inhibition curve) [1]: 3
IC50 [1]: 300 ± 5 nM

Z-VDVAD(SEQ ID NO:9)-FMK ({code Z}-VDVAD-CH2F; reading uncertain) [reference compound]
VDVAD-AMC cleavage by caspase-2 [1]: blocked

z-LEHD-fmk ({code Z}-LEHD-CH2F; reading uncertain; also: printed as z-LEHD-fmk) [reference compound]
VDVAD-AMC cleavage by caspase-2 [1]: not
